Reference: US20240336647A1, “NUCLEOSIDE ANALOGS AND THERAPEUTIC USE THEREOF” (priority 2023, published 2024)
“Also recorded” adds a separate entry of the source.

Experiments:
SARS-COV-2 RdRp [1] = target: T1, SARS-COV-2 RdRp (Severe acute respiratory syndrome coronavirus 2, UniProt P0DTD1); assay: Primer extension to determine if m1A is incorporated onto RNA by RdRp via m1ATP (PAGE); format: biochemical; settings: CTP, 37° C.
Experimental: Determine if the m1A or m3C modification could be incorporated onto RNA or DNA by a polymerase via m1ATP or m3CTP, respectively: The SARS-COV-2 RdRp with m1ATP is used as the example. Sources of materials used in the experiment can be found in reference [Apostle et al Preprints doi:10.20944/preprints202311.1268.v1]. RNA duplex [F038]-[F039] (SEQ ID NOs: 12 and 13, FIG. 2) was prepared by annealing the two RNAs using the following procedure. The solution of RNAs [F038] (SEQ ID NO: 12, 20 μM, all concentrations are final) and [F039] (SEQ ID NO: 13, 20 μM) in Tris-HCl (10 mM), and KCI (100 mM) was heated at 94° C. for 5 min. The solution was then cooled to RT slowly giving the [F038]-[F039] (SEQ ID NOs: 12 and 13) duplex. […] To another tube containing only the RNA duplex in 10 μL nuclease free water ([…], corresponding to the experiment of lane 1 in FIG. 2) were also added the EDTA and loading dye solutions (same quantities as above, final volume 30 μL). […]
The results of the primer extension reaction is shown in FIG. 2, gel image for determining if m1A could be incorporated onto RNA by SARS-COV-2 RdRp via m1ATP. […] The reaction products were analyzed with PAGE. […]

SARS-COV-2 RdRp [2] = target: T1, SARS-COV-2 RdRp; format: biochemical

| SMILES | inhibition of RdRp by m1ATP (SARS-COV-2 RdRp [1]; m1ATP only for 15 min, then ATP, GTP and UTP) | incorporation of m1A into RNA by RdRp via m1ATP (SARS-COV-2 RdRp [1]; m1ATP, GTP, UTP 0.5 mM each, no ATP, 2 h) | effect of the modification in template RNA on RdRp catalytic activity (SARS-COV-2 RdRp [2]) |
| --- | --- | --- | --- |
| C[n+]1cnc2c(ncn2[C@@H]2O[C@H](COP(=O)(O)OP(=O)(O)OP(=O)(O)O)C(O)C2O)c1N (stereo partly drawn) [m1ATP] | does not inhibit RdRp | m1A can be incorporated into RNA by SARS-COV-2 RdRp via m1ATP; also recorded: m1A could indeed be efficiently incorporated into RNA by SARS-COV-2 RdRp; also recorded: m1A can be incorporated onto RNA |  |
| C[n+]1c(N)ccn([C@@H]2O[C@H](CO)C(O)C2O)c1=O (stereo partly drawn) [m3C, N3-methylcytidine] |  |  | has minimal impact; also recorded: can be tolerated by the RdRp; also recorded: has little effect on the RdRp |
